Source: patent US20150119363A1, “METHODS OF TREATING BACTERIAL INFECTIONS” (Rampex Pharmaceuticals, Inc., priority 2012, published 2015)

Legend:
Test in all cases: Inhibition of biapenem hydrolysis by bacterial lysate
Format in all cases: biochemical
[1] = molecular target: T1, KPC-3 (Escherichia coli EC1007 lysate) (Klebsiella pneumoniae, UniProt Q9F663, H272Y); conditions: EC1007 KPC-3 lysate; read-out: IC50 (μg/mL) of inhibition of biapenem hydrolysis
T1 construct: Lysates were prepared from bacteria expressing various β-lactamases as a source of enzymes; endogenous in cells; host or cells: Escherichia coli strain EC1007 (freeze-thaw lysate supernatant)
T1 sequence (Q9F663 25-293 H272Y): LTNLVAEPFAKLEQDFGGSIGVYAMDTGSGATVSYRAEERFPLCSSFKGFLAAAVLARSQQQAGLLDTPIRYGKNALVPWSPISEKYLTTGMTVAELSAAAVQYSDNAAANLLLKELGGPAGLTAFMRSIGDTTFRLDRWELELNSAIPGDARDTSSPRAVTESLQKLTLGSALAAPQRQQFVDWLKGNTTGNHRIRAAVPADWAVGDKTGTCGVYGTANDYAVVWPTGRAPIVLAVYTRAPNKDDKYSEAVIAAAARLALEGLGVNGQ
Description: (§1) The activity of β-lactamase inhibitors to inhibit hydrolysis of biapenem was studied. Lysates were prepared from bacteria expressing various β-lactamases as a source of enzymes. Bacterial lysates were prepared as follows. A single colony from the fresh overnight plate was transferred to 5 mL of LB broth and grown to OD600=0.6-0.8. Next, this culture was transferred to 500 mL of LB and grown to OD600=0.7-0.9. Cells were pelleted by centrifugation at 5000 RPM (JA-14 rotor) for 15 minutes at room temperature. The pellet was resuspended in 10 mL of PBS. Five freeze-thaw cycles by putting cells at −20° C. and thawing them at the room temperature were next applied. After the last thaw step cells were spun down at 18K for 30 minutes and the supernatant was collected. This lysate was stored at −20° C.
(§2) Next, the activity of bacterial lysates was optimized for biapenem cleavage as follows. 50 μl of buffer A (50 mM Sodium Phosphate pH=7; 0.5% glucose, 1 mM MgCl2) was added to each well of 96-well UV-transparent plate. 50 μl of lysate was titrated vertically in 96-well plate column to generate 2-fold lysate dilutions. 100 μl of buffer A was added to each well, placed in plate reader at 37° C. and incubated for 15 minutes. 50 μl of 50 μg/mL solutions of biapenem in buffer A (pre-incubated at 37° C. for 15 minutes) were added to each well. Hydrolysis of biapenem was measured at 296 nm. This experiment was used to determine the optimal lysate dilution which produced a linear curve of relative UV signal that decreased to approximately OD=0.3-0.5 over 1 hour.
(§3) Finally, the potency of cyclic boronic acid derivative to inhibit the cleavage of biapenem cleavage by bacterial lysates was determined. 100 μl of buffer A (50 mM Sodium Phosphate pH=7; 0.5% glucose, 1 mM MgCl2) was added to each well of 96-well UV-transparent plate. 50 μl of 6× cyclic boronic acid derivative solution in buffer A was titrated vertically in 96-well plate column to generate 3-fold dilutions. 50 μl of diluted lysate in buffer A (optimal dilution is determined in experiment above) was added, and the plate was incubated in the plate reader at 37° C. for 15 minutes. 50 μl of 50 μg/mL solution of biapenem in buffer A (pre-incubated at 37° C. for 15 minutes) were next added to each well and hydrolysis of biapenem was recorded at 296 nm. EC50 of inhibition was determined by plotting the rate of biapenem cleavage vs. cyclic boronic acid derivative concentration.

[2] = molecular target: T2, KPC-2 (Klebsiella pneumoniae KP1008 lysate) (Klebsiella pneumoniae, UniProt Q9F663)
T2 construct: Lysates were prepared from bacteria expressing various β-lactamases as a source of enzymes; endogenous in cells; host or cells: Klebsiella pneumoniae strains KP1004 and KP1008 (freeze-thaw lysate supernatants)
T2 sequence (Q9F663 25-293 limits assumed): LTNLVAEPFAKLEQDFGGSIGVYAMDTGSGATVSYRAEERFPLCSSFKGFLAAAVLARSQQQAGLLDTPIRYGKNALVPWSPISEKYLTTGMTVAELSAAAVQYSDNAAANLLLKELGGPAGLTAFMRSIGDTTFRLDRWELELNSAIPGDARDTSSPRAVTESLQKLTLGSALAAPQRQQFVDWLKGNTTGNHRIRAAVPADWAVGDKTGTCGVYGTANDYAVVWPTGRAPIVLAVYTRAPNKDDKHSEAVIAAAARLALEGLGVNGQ
Description: as §1, §2, §3

[3] = molecular target: T3, SME-2 (Serratia marcescens SM1000 lysate) (Serratia marcescens, UniProt P52682); conditions: SM1000 SME-2 lysate; read-out: IC50 (μg/mL) of inhibition of biapenem hydrolysis
T3 construct: Lysates were prepared from bacteria expressing various β-lactamases as a source of enzymes
T3 sequence (P52682 28-294 limits assumed): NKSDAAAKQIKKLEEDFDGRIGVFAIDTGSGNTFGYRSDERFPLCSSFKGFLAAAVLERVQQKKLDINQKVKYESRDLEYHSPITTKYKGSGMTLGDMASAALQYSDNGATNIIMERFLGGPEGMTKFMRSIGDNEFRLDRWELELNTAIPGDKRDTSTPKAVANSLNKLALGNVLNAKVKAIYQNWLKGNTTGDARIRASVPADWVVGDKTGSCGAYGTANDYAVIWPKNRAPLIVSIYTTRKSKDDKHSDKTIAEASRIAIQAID
Description: as §1, §2, §3

[4] = molecular target: T4, KPC-2 (Klebsiella pneumoniae KP1004 lysate) (Klebsiella pneumoniae, UniProt Q9F663)
T4 construct: Lysates were prepared from bacteria expressing various β-lactamases as a source of enzymes; endogenous in cells; host or cells: Klebsiella pneumoniae strains KP1004 and KP1008 (freeze-thaw lysate supernatants)
T4 sequence (Q9F663 25-293 limits assumed): as the sequence (Q9F663 25-293 limits assumed) above
Description: as §1, §2, §3

O=C(O)C[C@@H]1CC[C@H](NC(=O)Cc2cccs2)B(O)O1 [Compound 5, 2-((3R,6S)-2-hydroxy-3-(2-(thiophen-2-yl)acetamido)-1,2-oxaborinan-6-yl)acetic acid]
IC50 [1]: < 337 nM
IC50 [2]: 337 to 3370 nM
IC50 [3]: < 337 nM
IC50 [4]: < 337 nM
